Assay results reported in patent publication US20240425523A1, “Compounds for the Degradation of EGFR Kinase” (Beigene Switzerland GMBH, priority 2023, published 2024).

Assays:
Format in all cases: cell-based
[1] = molecular target: T1, EGFR-L858R/C797S (H1975-clone #8 cells) (Homo sapiens, UniProt P00533, C797S/L858R); experiment: Cell degradation of EGFR, HTRF assay, H1975-clone#8 (L858R/C797S) cells; details: 16 h treatment; for DC50: EGFR degradation; for Dmax: maximum percentage of degradation
T1 construct: expressed in transfected cells; host or cells: H1975 (endogenous EGFR knocked out, clone #8)

[2] = molecular target: T2, EGFR L858R (BaF3-L858R cells) (Homo sapiens, UniProt P00533, L858R); experiment: Cell degradation of EGFR, HTRF assay, BaF3-L858R cells; details: 16 h treatment; for DC50: EGFR degradation; for Dmax: maximum percentage of degradation
T2 construct: host or cells: BaF3
Outline: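 EGFR L858R levels measured by HTRF antibody pair in lysed BaF3-L858R cells after 16 h compound exposure (8-point 5-fold series from 10 uM final, 37° C). Degradation is relative to DMSO-only cells; DC50 fitted with Hill equation, Dmax taken as the largest percent loss.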

[3] = molecular target: T3, p-EGFR L858R (BaF3-L858R cells) (Homo sapiens, UniProt P00533, L858R); experiment: Cell p-EGFR inhibition assay, HTRF, BaF3-L858R cells; details: 16 h treatment; for Imax (%): maximum percentage of pEGFR inhibition; for IC50: pEGFR inhibition
T3 construct: host or cells: BaF3
Outline: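 BaF3-L858R cells treated 16 h at 37 °C, 5% CO2 with compound from 10 uM top, 5-fold dilutions, 8 doses, in 0.1% DMSO medium. Lysates read overnight by HTRF p-EGFR antibodies; IC50 fitted to four-parameter curve against DMSO high control.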

[4] = molecular target: p-EGFR Del19/C797S (H1975-clone #23 cells) (Homo sapiens, UniProt P00533); experiment: Cell p-EGFR inhibition assay, HTRF, H1975-clone#23 (DEL19/C797S) cells; details: 16 h treatment; for Imax (%): maximum percentage of pEGFR inhibition; for IC50: pEGFR inhibition
Outline: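 Phospho-EGFR read by overnight HTRF on lysates, normalized to DMSO-treated high control; IC50, Hill slope and Imax fitted. Compounds were applied for 16 h (10 uM top, 5-fold steps, 8 doses) to an H1975 single clone carrying only exogenous Del19/C797S EGFR after sgRNA knockout of endogenous copies.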

| DC50 [1] [nM] | Dmax [1] [%] | DC50 [2] [nM] | Dmax [2] [%] | Imax (%) [3] [%] | IC50 [3] [nM] | Imax (%) [4] [%] | IC50 [4] [nM] | Structure (SMILES) |
| --- | --- | --- | --- | --- | --- | --- | --- | --- |
| 5.5 | 85.7 | 3.4 | 89.5 | 91.3 | 10.9 | 99.2 | 9.5 | COC[C@@H]1CN(c2ccc3c(c2)N2CC4CC[C@H](COc5c(c(C(F)(F)F)nn5C)-c5cc(cc(C)n5)C(=O)/N=C/2N3)C4)CCN1C1CCN(c2cc(F)c([C@H]3CCC(=O)NC3=O)c(F)c2)CC1 [Example 77, (R)-3-(4-(4-((S)-4-((7^1R,7^3S,E)-1^1,2^6-dimethyl-3-oxo-1^3-(trifluoromethyl)-5^2,5^3-dihydro-1^1H,5^1H-9-oxa-4-aza-5(2,1)-benzo[d]imidazola-2(2,4)-pyridina-1(4,5)-pyrazola-7(1,3)-cyclopentanacyclononaphane-5^6-yl)-2-(methoxymethyl)piperazin-1-yl)piperidin-1-yl)-2,6-difluorophenyl)piperidine-2,6-dione] |
| 4.18 | 65.5 | 3.68 | 87.8 | 92.5 | 16.9 | 100.6 | 1.2 | Cc1cc2cc(n1)-c1cnn(C)c1OC[C@H]1CCC(C1)CN1/C(=N/C2=O)Nc2ccc(N3CCN(CCc4cc(F)c(C5CCC(=O)NC5=O)nc4C)CC3)cc21 (some centres unmarked) [Example 78, 3-(5-(2-(4-((7^1R,7^3S,E)-1^1,2^6-dimethyl-3-oxo-5^2,5^3-dihydro-1^1H,5^1H-9-oxa-4-aza-5(2,1)-benzo[d]imidazola-2(2,4)-pyridina-1(4,5)-pyrazola-7(1,3)-cyclopentanacyclononaphane-5^6-yl)piperazin-1-yl)ethyl)-3-fluoro-6-methylpyridin-2-yl)piperidine-2,6-dione] |
| 0.48 | 91.7 | 0.41 | 92.6 | 92.7 | 1.1 | 101.4 | 0.3 | Cc1cc2cc(n1)-c1c(C)nn(C)c1OC[C@H]1CCC(C1)CN1/C(=N/C2=O)Nc2ccc(N3CCN([C@@H]4CCN(c5ccc(C6CCC(=O)NC6=O)nc5C)C[C@@H]4F)CC3)cc21 (stereo partly drawn) [Example 79, 3-(5-((3S,4R)-3-fluoro-4-(4-((7^1R,7^3S,E)-1^1,1^3,2^6-trimethyl-3-oxo-5^2,5^3-dihydro-1^1H,5^1H-9-oxa-4-aza-5(2,1)-benzo[d]imidazola-2(2,4)-pyridina-1(4,5)-pyrazola-7(1,3)-cyclopentanacyclononaphane-5^6-yl)piperazin-1-yl)piperidin-1-yl)-6-methylpyridin-2-yl)piperidine-2,6-dione] |
| 5.24 | 82.4 | 1.73 | 88.1 | 91.7 | 3.8 | 99.9 | 1.6 | COC[C@@H]1CN(c2ccc3c(c2)N2CC4CC[C@H](COc5c(c(C)nn5C)-c5cc(cc(C)n5)C(=O)/N=C/2N3)C4)CCN1C1CCN(c2cc(F)c([C@H]3CCC(=O)NC3=O)c(F)c2)CC1 [Example 80, (R)-3-(2,6-difluoro-4-(4-((S)-2-(methoxymethyl)-4-((7R,7^3S,E)-1^1,1^3,2^6-trimethyl-3-oxo-5^2,5^3-dihydro-1^1H,5^1H-9-oxa-4-aza-5(2,1)-benzo[d]imidazola-2(2,4)-pyridina-1(4,5)-pyrazola-7(1,3)-cyclopentanacyclononaphane-5^6-yl)piperazin-1-yl)piperidin-1-yl)phenyl)piperidine-2,6-dione] |
| 0.8 | 89.2 | 0.31 | 74.1 | 91.9 | 3.1 | 101.1 | 1.1 | Cc1cc2cc(n1)-c1c(C)nn(C)c1OC[C@H]1CCC(C1)CN1/C(=N/C2=O)Nc2ccc(N3CCN([C@@H]4CCN(c5cc(F)c(C6CCC(=O)NC6=O)nc5C)C[C@@H]4F)CC3)cc21 (stereo partly drawn) [Example 82, 3-(3-fluoro-5-((3S,4R)-3-fluoro-4-(4-((7^1R,7^3S,E)-1^1,1^3,2^6-trimethyl-3-oxo-5^2,5^3-dihydro-1^1H,5^1H-9-oxa-4-aza-5(2,1)-benzo[d]imidazola-2(2,4)-pyridina-1(4,5)-pyrazola-7(1,3)-cyclopentanacyclononaphane-5^6-yl)piperazin-1-yl)piperidin-1-yl)-6-methylpyridin-2-yl)piperidine-2,6-dione] |
| 5.64 | 81.8 | 4.08 | 69.1 | 96.5 | 18 | 100.7 | 1 | Cc1cc2cc(n1)-c1cnn(C)c1OC[C@H]1CCC(C1)CN1/C(=N/C2=O)Nc2ccc(N3CCN([C@H]4CCN(c5ccc(C6CCC(=O)NC6=O)nc5C)CC4(F)F)CC3)cc21 (stereo partly drawn) [Example 83, 3-(5-((S)-4-(4-((7^1R,7^3S,E)-1^1,2^6-dimethyl-3-oxo-5^2,5^3-dihydro-1^1H,5^1H-9-oxa-4-aza-5(2,1)-benzo[d]imidazola-2(2,4)-pyridina-1(4,5)-pyrazola-7(1,3)-cyclopentanacyclononaphane-5^6-yl)piperazin-1-yl)-3,3-difluoropiperidin-1-yl)-6-methylpyridin-2-yl)piperidine-2,6-dione] |
| 4.91 | 83 | 4.23 | 78 | 97.5 | 11.6 | 99.7 | 3.1 | COC[C@@H]1CN(c2ccc3c(c2)N2CC4CC[C@H](COc5c(c(C(F)F)nn5C)-c5cc(cc(C)n5)C(=O)/N=C/2N3)C4)CCN1C1CCN(c2cc(F)c([C@H]3CCC(=O)NC3=O)c(F)c2)CC1 [Example 85, (R)-3-(4-(4-((S)-4-((7^1R,7^3S,E)-1^3-(difluoromethyl)-1^1,2^6-dimethyl-3-oxo-5^2,5^3-dihydro-1^1H,5^1H-9-oxa-4-aza-5(2,1)-benzo[d]imidazola-2(2,4)-pyridina-1(4,5)-pyrazola-7(1,3)-cyclopentanacyclononaphane-5^6-yl)-2-(methoxymethyl)piperazin-1-yl)piperidin-1-yl)-2,6-difluorophenyl)piperidine-2,6-dione] |
| 3.22 | 66 | 2.74 | 70.3 | 97.1 | 17.2 | 100.2 | 3 | COC[C@@H]1CN(c2ccc3c(c2)N2CC4CC[C@H](COc5c(cnn5C)-c5cc(cc(C)n5)C(=O)/N=C/2N3)C4)CCN1CC1CN(c2cc(F)c([C@H]3CCC(=O)NC3=O)c(F)c2)C1 [Example 86, (R)-3-(4-(3-(((S)-4-((7^1R,7^3S,E)-1^1,2^6-dimethyl-3-oxo-5^2,5^3-dihydro-1^1H,5^1H-9-oxa-4-aza-5(2,1)-benzo[d]imidazola-2(2,4)-pyridina-1(4,5)-pyrazola-7(1,3)-cyclopentanacyclononaphane-5^6-yl)-2-(methoxymethyl)piperazin-1-yl)methyl)azetidin-1-yl)-2,6-difluorophenyl)piperidine-2,6-dione] |
| 8.71 | 70.8 | 2.86 | 64.1 | 96.2 | 13.8 | 100.3 | 1.5 | COC[C@@H]1CN(c2cc3c(cc2F)N/C2=N\C(=O)c4cc(C)nc(c4)-c4cnn(C)c4OC[C@H]4CCC(C4)CN23)CCN1C1CCN(c2cc(F)c([C@H]3CCC(=O)NC3=O)c(F)c2)CC1 [Example 87, (R)-3-(2,6-difluoro-4-(4-((S)-4-((7^1R,7^3S,E)-5^5-fluoro-1^1,2^6-dimethyl-3-oxo-5^2,5^3-dihydro-1^1H,5^1H-9-oxa-4-aza-5(2,1)-benzo[d]imidazola-2(2,4)-pyridina-1(4,5)-pyrazola-7(1,3)-cyclopentanacyclononaphane-5^6-yl)-2-(methoxymethyl)piperazin-1-yl)piperidin-1-yl)phenyl)piperidine-2,6-dione] |
| 1.63 | 82.9 | 16.4 | 95.8 | 108.3 | 6.1 | 100.7 | 3 | Cc1cc2cc(n1)-c1cnn(C)c1OC[C@H]1CCC(C1)CN1/C(=N/C2=O)Nc2ccc(N3CCN(C4CCN(c5ccc(OC6CCC(=O)NC6=O)cc5F)CC4)CC3)cc21 (some centres unmarked) [Example 88, 3-(4-(4-(4-((7^1R,7^3S,E)-1^1,2^6-dimethyl-3-oxo-5^2,5^3-dihydro-1^1H,5^1H-9-oxa-4-aza-5(2,1)-benzo[d]imidazola-2(2,4)-pyridina-1(4,5)-pyrazola-7(1,3)-cyclopentanacyclononaphane-5^6-yl)piperazin-1-yl)piperidin-1-yl)-3-fluorophenoxy)piperidine-2,6-dione] |
